Measured values as given in patent US20050288369A1, “Novel n-hydroxy thiourea, urea and amide compounds and the pharmaceutical compositions comprising the same” (priority 2002, published 2005).
Each block holds one compound with its values, some of them ahead of it.

Columns and labels:
[1] = target: T1, vanilloid receptor-1 (VR1) (Rattus norvegicus, UniProt O35433); test: [3H]RTX competition binding assay, VR1-expressing CHO cells; settings: displacement of bound [3H]RTX; mean±SEM, 3 experiments
T1 construct: expressed in transfected cells; host or cells: Chinese Hamster Ovary cells (CHO, ATCC CCL-61), Tet-off inducible expression
Method: The binding affinity activity of the target compounds for vanilloid receptor-1 was measured by an in vitro receptor binding affinity assay. In the receptor binding assay, the compounds were evaluated for their ability to displace bound [^3H]RTX from the receptor. The results are expressed in terms of Ki values (mean±SEM, 3 experiments) which represent the concentration of the non-radioactive ligand that displaces half of the bound labeled RTX.
The VR receptor binding affinity activity of the inventive compounds was measured by using Chinese Hamster Ovary (CHO, ATCC, No. CCL-61) cell whose cDNA of VR1 (pUHG102 VR1 plasmid) was transfected, which can control the expression of VR1 according to the presence of tetracycline and Tetracycline on/off system (pTet off regulatory plasmid, Clontech. Inc., USA) that the expression of VR1 is induced by removing tetracycline from the medium. […] The cells were cultured after removing tetracycline prior to 48 hours. The tetracycline free culture medium was seeded at the bottom of T75 flask, incubated to the extent that its density reaches at 90%, and washed once with PBS buffer solution. The cells were collected by using saline solution containing 5 mM EDTA and subjected to centrifugation slightly to obtain precipitates, further, which had been kept at the temperature of −20° C. before use.
Experiments were designed to assess inhibition of specific [^3H]RTX binding to membranes by non-radioactive compounds. The binding assay mixture containing [^3H]RTX ([…]), various concentrations of competitive binding substances, 0.25 mg/ml of BSA (Cohn fraction V), 5×10^4 ˜5×10^5 numbers of VR1 and the expression cell, was admixed with saline solution containing 450 μl of Ca^2+ and Mg^2+ and […] of BSA. Non-specific binding assay was measured after mixing 100 nM of non-radioactive RTX thereto. The reaction mixture was treated for 60 min at 37° C. and the reaction was quenched by cooling over ice. RTX bound to the membrane of VR1 was subjected to centrifugation with maximum velocity for 15 minutes to precipitate its membrane residue, which results in separating from non-binding RTX. The tips of tube containing above precipitate was cut off and the amount of bound radioisotope was determined by scintillation counter (LS6500, Beckman-Coulter, USA). The measurement of binding was determined in triplicate in each experiment, and each experiment was repeated at least two times. Binding data were analyzed by fitting to the Hill equation and the Ki (equilibrium binding parameter) index, the Bmax (maximum binding parameter) index, and the cooperativity index etc., were determined by using origin 6.0 program (Origin, MicroCal Co., USA).
An initial compound was dissolved in DMSO (dimethyl sulfoxide) and diluted with saline solution containing Ca^2+ and […], and […] of BSA.

[2] = target: T2, VR1 (Rattus norvegicus, UniProt O35433); test: 45Ca influx test in CHO cells expressing VR1, antagonistic activity against 50 nM capsaicin; assay type: cell-based; settings: 45Ca uptake stimulated with 50 nM capsaicin
T2 construct: expressed in transfected cells; host or cells: Chinese Hamster Ovary cells (CHO, ATCC CCL-61), Tet-off inducible expression
Method: (§1) The ^45Ca Influx test by using CHO cells of the inventive compounds was measured by using Chinese Hamster Ovary (CHO, ATCC, No. CCL-61) cell whose cDNA of VR1 (pUHG102 VR1 plasmid) was transfected, which can control the expression of VR1 according to the presence of tetracycline and Tetracycline on/off system (pTet off regulatory plasmid, Clontech. Inc., USA) that the expression of VR1 is induced by removing tetracycline from the medium.
(§2) The CHO cells were poured onto 24 well plates to the extent that its density reaches at 30% and incubated for 24 hours at 37° C. The culture medium was exchanged to tetracycline free medium to induce the expression of VR1 and tested after 36 hours.
(§3) Together with 0.25 mg/ml BSA (Sigma A2153, USA), 1 Ci/ml ^45Ca(5-30 Ci/g used, ICN. Co., 62005 RT, U.S.A.), the test samples with increasing concentrations were added to each well. At the quenching moment of the incubation with ^45Ca, the cultured cells were removed from the medium, washed three times with cool PBS buffer solution containing 1.8 mM CaCl2 and 400 μl of RIPA buffer solution (50 mM Tris pH 7.4; 150 mM sodium chloride; 0.1% SDS; 1% sodium deoxycholate), was added in each well to homogenize the cells. The plates were stirred for 20 minutes slowly and 300 μl of cell lysate was transferred to scintillation vials from each wells. The radioactivity was determined by scintillation counter.
(§4) The data were assessed by determining four wells per each data point in each experiment and analyzed in computer by being transformed into Hill equation. The experiments were determined in triplicate in each sample comprising inventive compounds and control groups.
In order to determine the antagonistic activity, ^45Ca^2+-uptake stimulating-mixture was added with 50 nM capsaicin and the antagonistic activity was determined by the method for the agonistic activity. In case that 10 μM a certain compound cannot change the capsaicin-inducing activity, the compound shall be regarded as an […].

[3] = target: T2, VR1; test: 45Ca influx test in CHO cells expressing VR1, agonistic activity; assay type: cell-based; settings: 45Ca uptake
Method: The ^45Ca Influx test by using CHO cells expressing VR1 was performed by the procedure described in the literature (Lee, J. W., Bioorganic & Medicinal Chemistry, pp 1713-1720, 2001).
as §1, §2
as §3, with “In radioactive ^45Ca uptake experiment, The cells were incubated in […] of DMEM medium (Dulbecco's modified Eagles medium: Gibco-BRL, 31600-083) containing free of serum and 1.8 mM CaCl2 for 10 minutes at 37*C. Together” for “Together”
as §4

[4] = system: Male ICR mice; test: Acetic acid-induced writhing test; assay type: in vivo; settings: Mus musculus, ip; i.p. 30 mins before 1.2% acetic acid i.p.; 50% reduction of the number of writhes
Method: The acetic acid-induced writhing test for testing the analgesic activity of inventive compounds prepared from above Examples was performed by the procedure described in the literature (Lee, J. W., Bioorganic & Medicinal Chemistry, pp 1713-1720, 2001).
Male ICR mice having its mean body weight of 25 g (CD-1; Biogenomics Co. Korea) were reared in lighting controlled environment (12 hrs on/12 hrs off) maintaining with temperatures at 22±2° C. and humidity at 50±5% and allowed to eat a diet and to drink tap water ad lib.
Mice were fasted overnight prior to testing and adopted to the environment.
0.3 ml of acetic acid solution (1.2%) was administrated in the mice intraperitoneally and then the mice were put into the transparent acryl box (15×15×15 cm). 5 minutes later, the number of abdominal constrictions was counted for 20 minutes. Each group consisting of ten mice was pretreated with test compounds or solvent (0.2 ml, i.p.) 30 mins before the injection of acetic acid. Test compounds were dissolved in the mixture of ethanol/Tween-80/saline ([…]) or cremophor EL/DMSO/d-water ([…]).
Analgesic activity of each drug was determined at several different concentrations.
The index of analgesic activity (eff) was defined as below Empirical formula 1. Analgesic activity (eff)=100−{(No. of abdominal constriction of test group/No. of abdominal constriction of control group)×100} [Empirical formula 1]
Analgesic activity was expressed as the reduction in the number of abdominal constrictions, of control animals (vehicle-pretreated mice) and animals pretreated with test compounds.

T1 sequence (O35433 whole entry): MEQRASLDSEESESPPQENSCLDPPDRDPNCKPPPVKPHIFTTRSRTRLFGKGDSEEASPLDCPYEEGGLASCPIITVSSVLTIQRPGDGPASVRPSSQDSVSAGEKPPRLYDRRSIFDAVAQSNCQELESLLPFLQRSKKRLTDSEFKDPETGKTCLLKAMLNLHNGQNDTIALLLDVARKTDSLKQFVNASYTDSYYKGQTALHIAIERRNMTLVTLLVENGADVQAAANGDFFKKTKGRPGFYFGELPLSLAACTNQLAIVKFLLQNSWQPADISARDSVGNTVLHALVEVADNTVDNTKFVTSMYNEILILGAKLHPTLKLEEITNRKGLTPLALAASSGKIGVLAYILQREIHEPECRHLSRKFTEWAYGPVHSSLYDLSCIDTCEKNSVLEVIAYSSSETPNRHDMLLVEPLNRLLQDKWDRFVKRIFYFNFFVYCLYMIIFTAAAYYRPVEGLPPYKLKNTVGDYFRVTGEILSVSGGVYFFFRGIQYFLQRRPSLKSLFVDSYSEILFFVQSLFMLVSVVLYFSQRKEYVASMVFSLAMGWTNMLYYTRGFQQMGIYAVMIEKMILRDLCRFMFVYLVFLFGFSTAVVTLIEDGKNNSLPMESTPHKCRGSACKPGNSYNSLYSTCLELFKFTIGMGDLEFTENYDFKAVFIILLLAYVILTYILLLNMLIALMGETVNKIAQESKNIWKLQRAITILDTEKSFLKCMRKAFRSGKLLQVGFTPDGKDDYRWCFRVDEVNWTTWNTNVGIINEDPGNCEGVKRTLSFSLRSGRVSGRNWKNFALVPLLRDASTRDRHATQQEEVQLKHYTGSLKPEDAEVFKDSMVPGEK
T2 sequence (O35433 whole entry): as above

Ki [1]: 1350 nM | IC50 [2]: 520 nM
Structure (SMILES): Oc1cc2c(cc1O)CN(C(=S)NCCc1ccc(Cl)cc1)CCC2 [Capsazepine, reference compound]

Structure (SMILES): CC(C)(C)c1ccc(CN(O)C(=S)NCc2ccc(NS(C)(=O)=O)c(Cl)c2)cc1 [Compound 31, N-(4-tert-butylbenzyl)-N-hydroxy-N-[3-chloro-4-(methylsulfonylamino)benzyl]thiourea]
Ki [1]: 1310 nM | IC50 [2]: 579 nM

Structure (SMILES): CC(C)(C)c1ccc(CN(O)C(=S)NCc2ccc(NS(C)(=O)=O)c([N+](=O)[O-])c2)cc1 [Compound 32, N-(4-tert-butylbenzyl)-N-hydroxy-N-[4-(methylsulfonylamino)-3-nitrobenzyl]thiourea]
IC50 [2]: 635 nM

Structure (SMILES): CC(C)(C)c1ccc(CN(O)C(=S)NCc2ccc(NS(C)(=O)=O)cc2F)cc1 [Compound 33, N-(4-tert-butylbenzyl)-N-hydroxy-N-[2-fluoro-4-(methylsulfonylamino)benzyl]thiourea]
Ki [1]: 1920 nM | EC50 [3]: 12300 nM

Structure (SMILES): CC(C)(C)c1ccc(CN(O)C(=S)NCc2ccc(NS(C)(=O)=O)cc2Cl)cc1 [Compound 34, N-(4-tert-butylbenzyl)-N-hydroxy-N-[2-chloro-4-(methylsulfonylamino)benzyl]thiourea]
Ki [1]: 2270 nM

Structure (SMILES): COc1cc(CNC(=S)N(O)CC(COC(=O)C(C)(C)C)Cc2ccc(C)c(C)c2)ccc1NS(C)(=O)=O (stereo not drawn) [Compound 36, N-[2-(3,4-dimethylbenzyl)-3-(pivaloyloxy)propyl]-N-hydroxy-N-[3-methoxy-4-(methylsulfonylamino)benzyl]thiourea]
Ki [1]: 396 nM | EC50 [3]: 809 nM

Structure (SMILES): Cc1ccc(CC(COC(=O)C(C)(C)C)CN(O)C(=S)NCc2ccc(NS(C)(=O)=O)cc2F)cc1C (stereo not drawn) [Compound 38, N-[2-(3,4-dimethylbenzyl)-3-(pivaloyloxy)propyl]-N-hydroxy-N-[2-fluoro-4-(methylsulfonylamino)benzyl]thiourea]
EC50 [3]: 1350 nM

Structure (SMILES): Cc1ccc(CC(COC(=O)C(C)(C)C)CN(O)C(=S)NCc2ccc(NS(C)(=O)=O)cc2Cl)cc1C (stereo not drawn) [Compound 39, N-[2-(3,4-dimethylbenzyl)-3-(pivaloyloxy)propyl]-N-hydroxy-N-[2-chloro-4-(methylsulfonylamino)benzyl]thiourea]
Ki [1]: 221 nM | IC50 [2]: 757 nM

Structure (SMILES): CC(C)(C)C(=O)OCC(Cc1ccc(C(C)(C)C)cc1)CN(O)C(=S)NCc1ccc(NS(C)(=O)=O)cc1 (stereo not drawn) [Compound 40, N-[2-(4-tert-butylbenzyl)-3-(pivaloyloxy)propyl]-N-hydroxy-N-[4-(methylsulfonylamino)benzyl]thiourea]
Ki [1]: 536 nM | EC50 (nM) (VR1/CHO) [3]: weak

Structure (SMILES): CC(C)(C)C(=O)OCC(Cc1ccc(C(C)(C)C)cc1)CN(O)C(=S)NCc1ccc(NS(C)(=O)=O)c(F)c1 (stereo not drawn) [Compound 41, N-[2-(4-tert-butylbenzyl)-3-(pivaloyloxy)propyl]-N-hydroxy-N-[3-fluoro-4-(methylsulfonylamino)benzyl]thiourea]
Ki [1]: 405 nM | IC50 (nM) (VR1/CHO) [2]: Weak | EC50 (nM) (VR1/CHO) [3]: Weak

Ki [1]: 481 nM | IC50 (nM) (VR1/CHO) [2]: Weak | EC50 (nM) (VR1/CHO) [3]: Weak
Structure (SMILES): Cc1ccc(CC(CNC(=S)N(O)Cc2ccc(NS(C)(=O)=O)cc2)COC(=O)C(C)(C)C)cc1C (stereo not drawn) [Compound 61, N-[2-(3,4-dimethylbenzyl)-3-(pivaloyloxy)propyl]-N-hydroxy-N-[4-(methylsulfonylamino)benzyl]thiourea]

Ki [1]: 5310 nM | EC50 [3]: 1960 nM
Structure (SMILES): CC(C)(C)c1ccc(CC(=O)N(O)Cc2ccc(NS(C)(=O)=O)cc2)cc1 [Compound 63, N-hydroxy-N-[4-(methylsulfonylamino)benzyl]-2-(4-tert-butylphenyl)acetamide]

Ki [1]: 546 nM | EC50 (nM) (VR1/CHO) [3]: Weak
Structure (SMILES): Cc1ccc(CC(CNC(=S)N(O)Cc2ccc(NS(C)(=O)=O)c(F)c2)COC(=O)C(C)(C)C)cc1C (stereo not drawn) [Compound 64, N-[2-(3,4-dimethylbenzyl)-3-(pivaloyloxy)propyl]-N-hydroxy-N-[3-fluoro-4-(methylsulfonylamino)benzyl]thiourea]

Structure (SMILES): Cc1ccc(CC(CNC(=S)NCc2ccc(NS(C)(=O)=O)cc2)COC(=O)C(C)(C)C)cc1C (stereo not drawn) [JYL-827, reference compound]
ED50 [4]: 2.62 µg/kg

Structure (SMILES): Cc1ccc(CC(CNC(=S)NCc2ccc(NS(C)(=O)=O)c(F)c2)COC(=O)C(C)(C)C)cc1C (stereo not drawn) [JYL-1433, reference compound]
ED50 [4]: 7.43 µg/kg

Structure (SMILES): CC(C)(C)c1ccc(CNC(=S)NCc2ccc(NS(C)(=O)=O)cc2)cc1 [KJM-429, reference compound]
ED50 [4]: 1410 µg/kg

Structure (SMILES): O=C(c1ccccc1)c1ccc2n1CCC2C(=O)O (stereo not drawn) [Ketorolac, reference compound]
ED50 [4]: 2820 µg/kg

Structure (SMILES): CC(C)(C)c1ccc(CNC(=S)NCc2ccc(NS(C)(=O)=O)c(F)c2)cc1 [SC-0030, reference compound]
ED50 [4]: 1.26 µg/kg
